Measurements from US20240058318A1, “DEGRADING PKCB1 TO TREAT CANCER” (Mayo Foundation for Medical Education and Research, priority 2020, published 2024).
“Also recorded” adds a separate entry of the source. Each block holds one compound with its values, some of them ahead of it.

Key:
[1] = system: MCF7AC1 cells; assay: CV proliferation assay, ER+ MCF7AC1; assay type: cell-based
Experimental: (§1) Cell proliferation rates were determined using crystal violet assays. One thousand cells per well were plated in 96 well tissue culture plates and treated the following day with a bifunctional compound or control for 7 days in replicates of 8. Cells were fixed with 25% glutaraldehyde for 10 minutes with shaking, washed 5 times with distilled water, stained with a 1% crystal violet solution (solubilized in 25% methanol) for 10 minutes, washed again 5 times and allowed to dry. De-staining was performed using […] sodium citrate in 50% ethanol followed by quantification using a 96 well spectrophotometer set at an absorbance of 550 nm.
as §1, with “using CV” for “using crystal violet”, “assays. Two” for “assays. One”, “thousand (2000) or 4000” for “thousand”, “for 6” for “for 7”, “of 6.” for “of 8.”

[2] = system: Rb-proficient (MDAMB231) and Rb-deficient (BT549 and MDAMB436) TNBC cells; assay: CV proliferation assay, TNBC cells (statements across lines); assay type: cell-based; conditions: for inhibition of growth of TNBC cells: MDAMB231, BT549, MDAMB436, CV assay; for induction of apoptosis: MDAMB231 and BT549 cells (FIG. 4A and TABLE 1)
Experimental: as §1
as §1, with “using CV” for “using crystal violet”, “assays. Two” for “assays. One”, “thousand (2000) or 4000” for “thousand”, “for 6” for “for 7”, “of 6.” for “of 8.”

[3] = system: PKCβ1, E2F1, and Cyclin D1; assay: Western blot, BT549 and MDAMB436 cells (Example 6); assay type: cell-based; conditions: 1 μM, 24, 48, 72 hours
Experimental: TNBC BT549 and MDAMB436 cells were cultured in phenol-red free DMEM/F12 medium supplemented with 10% fetal bovine serum (FBS) and 1% AA. On day 1, cells were plated at a density of 2×10^5 BT549 cells or 4×10^5 MDAMB436 cells in a 6-well plate (two wells per treatment). The next day, cells were treated with DMSO, 1 μM Pr-9 (positive control), 1 μM Pr-9-1, 1 μM Pr-9-4, or 1 μM ENDX (negative control). Radioimmunoprecipitation Assay (RIPA) protein lysates were collected 24, 48, and 72 hours after treatment.
For western blot analysis, […] of protein lysates were run on Criterion precast 10% Bis-Tris gel, transferred to PVDF membrane, incubated in TBST-5% milk for one hour, and then incubated overnight with PKCβ1 (SC8049, mouse, 1:200), E2F1 (SC251, mouse, 1:250), Cyclin D1 (CS2978, rabbit, 1:1000), or Actin (Sigma A2228, mouse, 1:10,000 or CS8457, rabbit, 1:2000) primary antibodies in TBST-5% BSA solution. Membranes were washed in TBS-T, incubated for one-hour in HRP-linked anti-rabbit or anti-mouse secondary antibodies in TBST-5% milk, and washed in TBS-T. Bands were developed using west-pico or west-femto chemiluminescent substrate reagents.

[4] = system: MDAMB231 cells; assay: Crystal violet (CV) proliferation assay, MDAMB231; assay type: cell-based; conditions: MDAMB231 (PKCß1 high, Rb positive), 2000 cells
Experimental: as §1, with “One thousand cells per well were plated in 96 well tissue culture plates and treated the following day with a bifunctional compound or control for 7 days in replicates of 8.” left out

[5] = system: BT549 cells; assay: Crystal violet (CV) proliferation assay, BT549; assay type: cell-based; conditions: BT549 (PKCß1 high, Rb negative), 2000 cells
Experimental: as §1, with “One thousand cells per well were plated in 96 well tissue culture plates and treated the following day with a bifunctional compound or control for 7 days in replicates of 8.” left out

[6] = system: MDAMB436 cells; assay: Crystal violet (CV) proliferation assay, MDAMB436; assay type: cell-based; conditions: MDAMB436 (PKCß1 low, Rb negative), 2000 cells
Experimental: as §1, with “One thousand cells per well were plated in 96 well tissue culture plates and treated the following day with a bifunctional compound or control for 7 days in replicates of 8.” left out

[7] = system: MDAH-2774 cells; assay: CV proliferation assay, MDAH-2774 ovarian cancer cells; assay type: cell-based; conditions: MDAH-2774 (PKCß1 high), 1000 cells/well
Experimental: as §1
(§2) Based on the potent anti-proliferative activity of ENDX-PROTACs TC-Pr-006, TC-Pr-007, TC-Pr -008, and TC-Pr -009 in TNBC cells, the efficacy of these compounds for inhibiting the growth of ovarian cancer cells was tested. This analysis utilized KURAMOCHI cells, which represent the high-grade serous subtype (the most malignant form that accounts for 70% of all ovarian cancers and associates with poor clinical outcome) and MDAH-2774 cells, which represent endometrioid ovarian cancer and accounts for 20% of all ovarian cancer. PKCβ1 was confirmed to be expressed in both ovarian cancer cell line models, with MDAH-2774 cells expressing higher amounts of PKCβ1 compared to KURAMOCHI cells (FIG. 5A).

[8] = system: KURAMOCHI cells; assay: CV proliferation assay, KURAMOCHI ovarian cancer cells; assay type: cell-based; conditions: KURAMOSHI (PKCß1 low), 1000 cells/well
Experimental: as §1, §2

[9] = target: T1, PKCβ1 (Homo sapiens, UniProt P05771); assay: Western blot, PKCβ1 expression in MCF7AC1 cells; assay type: cell-based; conditions: 1 μM, within 72 hours, drugs replenished every 24 hours
T1 construct: western blots showing expression of PKCβ1 in MCF7AC1 cells treated with 1 μM concentration of the ENDX-PROTACs or ENDX; endogenous in cells; host or cells: MCF7AC1 (ER+ breast cancer cells)
T1 sequence (P05771 whole entry): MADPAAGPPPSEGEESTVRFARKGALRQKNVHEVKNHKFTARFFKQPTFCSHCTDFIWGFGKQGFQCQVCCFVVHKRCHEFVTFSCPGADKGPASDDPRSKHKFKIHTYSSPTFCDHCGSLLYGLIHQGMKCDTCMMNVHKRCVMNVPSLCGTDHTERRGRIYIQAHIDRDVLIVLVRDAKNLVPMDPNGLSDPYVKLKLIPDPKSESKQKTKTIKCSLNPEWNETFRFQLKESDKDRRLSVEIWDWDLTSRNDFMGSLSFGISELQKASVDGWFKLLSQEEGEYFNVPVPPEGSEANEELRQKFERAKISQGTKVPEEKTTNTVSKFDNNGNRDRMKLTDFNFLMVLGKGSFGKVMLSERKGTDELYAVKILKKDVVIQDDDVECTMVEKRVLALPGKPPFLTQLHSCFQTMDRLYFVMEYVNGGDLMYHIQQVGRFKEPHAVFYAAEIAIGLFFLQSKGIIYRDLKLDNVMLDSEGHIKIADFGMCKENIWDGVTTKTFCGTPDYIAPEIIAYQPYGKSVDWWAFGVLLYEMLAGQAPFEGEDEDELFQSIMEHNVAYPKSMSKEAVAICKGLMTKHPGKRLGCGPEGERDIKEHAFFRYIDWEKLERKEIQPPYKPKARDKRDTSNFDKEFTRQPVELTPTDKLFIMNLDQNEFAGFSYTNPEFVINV
Experimental: For western blotting analysis, cells were treated with vehicle (DMSO) or 1 μM of the indicated ENDX-PROTAC's or parent drug ENDX for 24, 48 and 72 hours with the drugs replenished every 24 hours. 25 μg of protein lysates were run on 10% Bis-Tris XT Criterion precast SDS-PAGE gels and transferred on to PVDF membrane. Following blocking with TB ST-5% milk, the membranes were probed with primary antibodies (1:500 — 1:2000 dilutions) for PKCβ1 (Abcam #136917), ERα (SC #8002), E2F1 (SC #251) and Actin (CS#8457) in TBST-5% BSA and secondary antibodies (1:2000 dilution) in TBST-5% milk. Membranes were developed using chemiluminescent WestPico or WestFemto detection solutions on the Li-Cor Imaging system.

[10] = Pharmacokinetics in mice, plasma by UPLC-MS/MS; assay type: in vivo, female CD1 mice; conditions: for Concentration ENDX PROTAC 9: PO 10 mg/kg, mouse plasma, individual samples
Experimental: ENDX PROTAC 7 and PROTAC 9 pharmacokinetics were characterized in female CD1 mice. Blood samples were collected from mice anesthetized under isoflurane via retro-orbital eye bleed into tubes containing EDTA and immediately chilled on ice. NaF was added to the EDTA collection tubes to help stabilize the drug in whole blood for the second IV and IP studies with ENDX PROTAC 9, and for the IV and oral studies with PROTAC 7. Plasma and red blood cells were separated immediately by centrifugation in a refrigerated centrifuge at 4° C. The plasma was transferred to a separate tube and immediately frozen at −20° C.
For IV dosing, ENDX PROTAC 9 was dissolved in 10% DMSO, 10% PEG 400, and 80% normal saline for a final concentration of 0.2 mg/mL ENDX PROTAC 9 for the 1 mg/kg IV doses. ENDX PROAC 7 was dissolved in 15% DMSO, 9.44% PEG400, and […] normal saline for a final concentration of 0.19 mg/mL for the 1 mg/kg IV doses. Blood samples (3 mice per time-point) were collected 5 minutes, 15 minutes, 0.5 hour, 1 hour, 2 hours, 4 hours, 8 hours, and 24 hours after administration of the ENDX PROTAC. A second IV study was performed for ENDX PROTAC 9 in which blood samples (3 mice per time-point) were collected 5 minutes, 15 minutes, 1 hour, and 2 hours after administration of ENDX PROTAC 9. For oral dosing, ENDX PROTAC 9 (10 mg/kg) and ENDX PROTAC 7 (10 mg/kg) were suspended in 1 mM ascorbic acid:PEG400, 1:1 v/v for a final concentration of 1.0 mg/mL ENDX PROTAC. Blood samples (three mice per time-point) were collected 15 minutes, 0.5 hour, 1 hour, 2 hours, 4 hours, 6 hours, 8 hours, and 24 hours after administering the ENDX PROTAC. For LP. dosing, ENDX PROTAC 9 (4 mg/kg) was prepared in 1 mM ascorbic acid:PEG400, 1:1 v/v for a final concentration of 0.4 mg/mL ENDX PROTAC 9. Blood samples (three mice per time-point) were collected 15 minutes, 0.5 hour, 1 hour, 2 hours, 4 hours, 6 hours, 8 hours, and 24 hours after administration. Plasma concentrations of ENDX PROTAC 7 and 9 were measured using UPLC-MS/MS.

SMILES: CC/C(=C(\c1ccc(O)cc1)c1ccc(OCCN(C)C(=O)COCCOCCN(C)C(=O)Cc2ccc3c(c2)CN(C2CCC(=O)NC2=O)C3=O)cc1)c1ccccc1 (stereo not shown) [Pr-9-1]
inhibition of growth of ER+ MCF7AC1 cells [1]: inhibited growth of ER+ MCF7AC1 cells | inhibition of growth of TNBC cells [2]: did not inhibit growth of MDAMB231, BT549, or MDAMB436 TNBC cells as effectively | impact on PKCβ1, E2F1, and Cyclin D1 protein expression [3]: lack of impact

SMILES: CC/C(=C(\c1ccc(O)cc1)c1ccc(OCCN(C)C(=O)COCCO[C@@H]2CCN(C(=O)Cc3ccc4c(c3)CN(C3CCC(=O)NC3=O)C4=O)C2)cc1)c1ccccc1 (stereo partly shown) [Pr-9-4]
inhibition of growth of ER+ MCF7AC1 cells [1]: inhibited growth of ER+ MCF7AC1 cells | inhibition of growth of TNBC cells [2]: did not inhibit growth of MDAMB231, BT549, or MDAMB436 TNBC cells as effectively | impact on PKCβ1, E2F1, and Cyclin D1 protein expression [3]: lack of impact

SMILES: CC/C(=C(\c1ccc(O)cc1)c1ccc(OCCN(C)C(=O)COCCNC(=O)c2cccc3c2CN([C@H]2CCC(=O)NC2=O)C3=O)cc1)c1ccccc1 [TC-Pr-001]
IC50 (result in words) [4]: No major killing | IC50 (result in words) [5]: No major killing | IC50 [6]: 10 µM

SMILES: CC/C(=C(\c1ccc(O)cc1)c1ccc(OCCN(C)C(=O)CCOCCNC(=O)c2cccc3c2CN([C@H]2CCC(=O)NC2=O)C3=O)cc1)c1ccccc1 [TC-Pr-002]
IC50 (result in words) [4]: No major killing | IC50 (result in words) [5]: No major killing | IC50 (result in words) [6]: No major killing

SMILES: CC/C(=C(\c1ccc(O)cc1)c1ccc(OCCN(C)C(=O)COCCOCCNC(=O)c2cccc3c2CN([C@H]2CCC(=O)NC2=O)C3=O)cc1)c1ccccc1 [TC-Pr-003]
IC50 (result in words) [4]: No major killing | IC50 (result in words) [5]: No major killing | IC50 (result in words) [6]: No major killing | Approximate IC50 (result in words) [7]: No killing | Approximate IC50 (result in words) [8]: No killing

SMILES: CC/C(=C(\c1ccc(O)cc1)c1ccc(OCCN(C)C(=O)COCCNC(=O)c2ccc3c(c2)CN([C@H]2CCC(=O)NC2=O)C3=O)cc1)c1ccccc1 [TC-Pr-004]
IC50 (result in words) [4]: No major killing | IC50 (result in words) [5]: No major killing, | IC50 [6]: 10 µM

More lines, main results first:

IC50 [4]: > 10 µM | IC50 [5]: > 10 µM | IC50 [6]: 0.1 to 1 µM
SMILES: CC/C(=C(\c1ccc(O)cc1)c1ccc(OCCN(C)C(=O)CCOCCNC(=O)c2ccc3c(c2)CN([C@H]2CCC(=O)NC2=O)C3=O)cc1)c1ccccc1 [TC-Pr-005]

IC50 [4]: 0.532 µM | IC50 [5]: 0.482 µM | IC50 [6]: 0.333 µM | IC50 ([7]; read-out: Approximate IC50): > 10 µM | IC50 ([8]; read-out: Approximate IC50): > 10 µM
SMILES: CC/C(=C(\c1ccc(O)cc1)c1ccc(OCCN(C)C(=O)COCCOCCNC(=O)c2ccc3c(c2)CN([C@H]2CCC(=O)NC2=O)C3=O)cc1)c1ccccc1 [TC-Pr-006]

IC50 [4]: 0.131 µM | IC50 [5]: 0.225 µM | IC50 [6]: 0.074 µM | PKCβ1 polypeptide degradation [9]: rapidly degraded PKCβ1 polypeptides
SMILES: CC/C(=C(\c1ccc(O)cc1)c1ccc(OCCN(C)C(=O)CCOCCNC(=O)Cc2ccc3c(c2)CN([C@H]2CCC(=O)NC2=O)C3=O)cc1)c1ccccc1 [TC-Pr-008]
induction of apoptosis [2]: induced apoptosis

Concentration ENDX PROTAC 9 ([10]; 120 minutes, listed as ENDX PROTAC 9, 10 mg/kg): BLD* | Concentration ENDX PROTAC 9 ([10]; 360 minutes, listed as ENDX PROTAC 9, 10 mg/kg): BLD | Concentration ENDX PROTAC 9 ([10]; 480 minutes, listed as ENDX PROTAC 9, 10 mg/kg): BLD | Concentration ENDX PROTAC 9 ([10]; 1440 minutes): BLD | time of peak plasma concentration ([10]; mice, I.V. 1 mg/kg, second study, NaF added to EDTA tubes): 5 min | stability in whole blood ([10]; mouse whole blood, comparison of IV studies with and without NaF): unstable in whole blood | PKCβ1 polypeptide degradation [9]: rapidly degraded PKCβ1 polypeptides
SMILES: CCC(=C(c1ccc(O)cc1)c1ccc(OCCN(C)C(=O)COCCOCCNC(=O)Cc2ccc3c(c2)CN(C2CCC(=O)NC2=O)C3=O)cc1)c1ccccc1 (stereo not shown) [TC-Pr-009, 2-[2-(2-2-[2-(2,6-dioxopiperidin-3-yl)-1-oxo-2,3-dihydro-1H-isoindo1-5-yl]acetamidoethoxy)ethoxy]-N-(2-4-[1-(4-hydroxyphenyl)-2-phenylbut-1-en-1-yl]phenoxyethyl)-N-methylacetamide]
induction of apoptosis [2]: induced apoptosis | PKCβ1 protein levels [3]: altered to varying extent | protein levels of E2F1 and Cyclin D1 ([3]; listed as Pr-9): clearly reduced by 48 hours; also recorded: reduced protein levels
